Data from ChEMBL document CHEMBL4811250, “Discovery and Optimization of 2H-1λ2-Pyridin-2-one Inhibitors of Mutant Isocitrate Dehydrogenase 1 for the Treatment of Cancer” (J Med Chem, 2021).
pIC50: −log10 of the molar value. Each block holds one compound with its values, some of them ahead of it.

Legend:
[1] = tested on: Isocitrate dehydrogenase [NADP] cytoplasmic (Homo sapiens), O75874 [R132H]; experiment: Inhibition of IDH1 R132H mutant (unknown origin) assessed as reduction in NADPH consumption using alpha-KG as substrate at 38 uM incubated for 5 mins by diaphorase/resazurin-coupled system relative to control
[2] = tested on: Isocitrate dehydrogenase [NADP] cytoplasmic (Homo sapiens), O75874 [R132C]; experiment: Inhibition of IDH1 R132C mutant (unknown origin) assessed as reduction in NADPH consumption using alpha-KG as substrate at 38 uM incubated for 5 mins by diaphorase/resazurin-coupled system relative to control
[3] = molecular target: Isocitrate dehydrogenase [NADP] cytoplasmic (Homo sapiens, UniProt O75874, R132H); experiment: Inhibition of IDH1 R132H mutant (unknown origin) assessed as reduction in NADPH consumption using alpha-KG as substrate incubated for 5 mins by diaphorase/resazurin-coupled system
[4] = molecular target: Isocitrate dehydrogenase [NADP] cytoplasmic (Homo sapiens, UniProt O75874, R132C); experiment: Inhibition of IDH1 R132C mutant (unknown origin) assessed as reduction in NADPH consumption using alpha-KG as substrate incubated for 5 mins by diaphorase/resazurin-coupled system
Isocitrate dehydrogenase [NADP] cytoplasmic (Homo sapiens, UniProt O75874, R132C), sequence (O75874 2-414 R132C limits assumed): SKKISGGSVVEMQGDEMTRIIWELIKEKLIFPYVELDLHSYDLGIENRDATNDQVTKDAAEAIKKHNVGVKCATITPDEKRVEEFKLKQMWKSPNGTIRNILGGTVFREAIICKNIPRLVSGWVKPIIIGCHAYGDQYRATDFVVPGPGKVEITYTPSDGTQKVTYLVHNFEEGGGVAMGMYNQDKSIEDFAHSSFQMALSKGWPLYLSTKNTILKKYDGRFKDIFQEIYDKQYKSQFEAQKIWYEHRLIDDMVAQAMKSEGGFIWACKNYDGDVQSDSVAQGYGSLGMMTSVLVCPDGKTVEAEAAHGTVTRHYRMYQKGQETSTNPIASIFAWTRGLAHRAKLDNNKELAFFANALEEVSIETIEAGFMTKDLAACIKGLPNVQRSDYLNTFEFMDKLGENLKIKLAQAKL

Isocitrate dehydrogenase [NADP] cytoplasmic (Homo sapiens, UniProt O75874, R132H), sequence (O75874 2-414 R132H limits assumed): as the sequence (O75874 2-414 R132C limits assumed) above, with C131H counted along it
Isocitrate dehydrogenase [NADP] cytoplasmic (Homo sapiens), O75874 [R132H], sequence (O75874 whole entry R132H): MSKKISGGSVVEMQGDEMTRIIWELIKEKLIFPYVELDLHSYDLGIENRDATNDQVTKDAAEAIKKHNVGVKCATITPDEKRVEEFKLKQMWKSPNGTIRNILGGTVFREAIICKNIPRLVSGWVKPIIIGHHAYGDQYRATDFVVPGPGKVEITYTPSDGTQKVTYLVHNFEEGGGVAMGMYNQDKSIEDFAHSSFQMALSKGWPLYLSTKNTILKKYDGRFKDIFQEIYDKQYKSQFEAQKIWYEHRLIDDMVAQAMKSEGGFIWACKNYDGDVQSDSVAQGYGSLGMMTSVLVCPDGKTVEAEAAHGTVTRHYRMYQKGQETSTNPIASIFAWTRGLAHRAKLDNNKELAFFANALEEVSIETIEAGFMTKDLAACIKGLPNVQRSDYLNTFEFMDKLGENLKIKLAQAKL
Isocitrate dehydrogenase [NADP] cytoplasmic (Homo sapiens), O75874 [R132C], sequence (O75874 whole entry R132C): as the sequence (O75874 whole entry R132H) above, with H132C counted along it

Structure (SMILES): CCc1cccc(CC)c1-n1c(C)c(C(=O)NCCNC)cc(-c2nc(-c3ccc(Cl)cc3)cs2)c1=O
inhibition [1]: 101%
inhibition [2]: 96%
pIC50 [3]: 6.06
pIC50 [4]: 6.49

Structure (SMILES): CCc1cccc(C)c1-n1c2c(cc(-c3nc(-c4ccc(Cl)cc4)cs3)c1=O)C(=O)CC(C)(C)C2
inhibition [1]: 89%
inhibition [2]: 86%
pIC50 [3]: 6.10
pIC50 [4]: 6.30

Structure (SMILES): CCc1cccc(CC)c1-n1c(C)c(C(=O)NCC(C)C)cc(-c2nc(-c3ccc(Cl)cc3)cs2)c1=O
inhibition [2]: 56%
pIC50 [3]: < 4.42
pIC50 [4]: 6.09

Structure (SMILES): COC(=O)c1ccsc1-n1c2c(cc(-c3nc(-c4ccc(Cl)cc4)cs3)c1=O)C(=O)CC(C)(C)C2
inhibition [1]: 94%
inhibition [2]: 83%
pIC50 [3]: 6.33
pIC50 [4]: 6.33

Structure (SMILES): COc1ccc(OC)c(-n2c(C)ccc(-c3nc(-c4ccc(Cl)cc4)cs3)c2=O)c1
pIC50 [3]: < 4.42
pIC50 [4]: < 4.42

Structure (SMILES): CCOc1cccc(OCC)c1-n1c2c(cc(-c3nc(-c4ccc(Cl)cc4)cs3)c1=O)C(=O)CC(C)(C)C2
inhibition [1]: 76%
inhibition [2]: 86%
pIC50 [3]: 6.41
pIC50 [4]: 6.80

Structure (SMILES): COc1ccc(OC)c(-n2c3c(cc(-c4nc(-c5ccc(Cl)cc5)cs4)c2=O)C=CC(C)(C)C3)c1
inhibition [1]: 96%
inhibition [2]: 76%
pIC50 [3]: 5.52
pIC50 [4]: 5.77

Structure (SMILES): CCc1cccc(CC)c1-n1c(CC2CCOC2)c(C(=O)N2CCNCC2)cc(-c2nc(-c3ccc(Cl)cc3)cs2)c1=O (centres undefined)
inhibition [1]: 105%
inhibition [2]: 91%
pIC50 [3]: 7.12
pIC50 [4]: 6.89

Structure (SMILES): COc1ccc(-n2c3c(cc(-c4nc(-c5ccc(Cl)cc5)cs4)c2=O)C(=O)CC(C)(C)C3)c(OC)c1
pIC50 [3]: < 4.42
pIC50 [4]: < 4.42

Structure (SMILES): CC1(C)CC(=O)c2cc(-c3nc(-c4ccc(Cl)cc4)cs3)c(=O)n(C3CCCCC3)c2C1
pIC50 [3]: < 4.42
pIC50 [4]: < 4.42

Structure (SMILES): CCc1cccc(CC)c1-n1c(C)c(C(=O)NCCCNC)cc(-c2nc(-c3ccc(Cl)cc3)cs2)c1=O
inhibition [1]: 104%
inhibition [2]: 95%
pIC50 [3]: 6.00
pIC50 [4]: 6.04

Structure (SMILES): COc1ccncc1-n1c2c(cc(-c3nc(-c4ccc(Cl)cc4)cs3)c1=O)C(=O)CC(C)(C)C2
pIC50 [3]: < 4.42
pIC50 [4]: < 4.42

Structure (SMILES): CCc1cccc(CC)c1-n1c(C)c(C(=O)N2CCN(C)CC2)cc(-c2nc(-c3ccc(Cl)cc3)cs2)c1=O
inhibition [1]: 88%
inhibition [2]: 86%
pIC50 [3]: 5.54
pIC50 [4]: 5.92

Structure (SMILES): CCc1cccc(CC)c1-n1c(CCC(F)(F)F)c(C(=O)N2CCNCC2)cc(-c2nc(-c3ccc(Cl)cc3)cs2)c1=O
inhibition [1]: 101%
inhibition [2]: 82%
pIC50 [3]: 6.62
pIC50 [4]: 6.22

Structure (SMILES): CCc1cccc(CC)c1-n1c(C)c(C(=O)N2CCOCC2)cc(-c2nc(-c3ccc(Cl)cc3)cs2)c1=O
inhibition [1]: 82%
inhibition [2]: 71%
pIC50 [3]: 5.38
pIC50 [4]: 5.39

Structure (SMILES): CCc1ccc(C)cc1-n1c(C=C(C)C)c(C(=O)N2CCNCC2)cc(-c2nc(-c3ccc(Cl)cc3)cs2)c1=O
pIC50 [3]: 7.36
pIC50 [4]: 6.96

Structure (SMILES): COc1ccc(OC)c(-n2c3c(cc(-c4nc(-c5ccc(Cl)cc5)cs4)c2=O)C(=O)CC(C)(C)C3)c1
inhibition [1]: 84%
inhibition [2]: 85%
pIC50 [3]: 5.80
pIC50 [4]: 6.00

Structure (SMILES): COc1ncccc1-n1c2c(cc(-c3nc(-c4ccc(Cl)cc4)cs3)c1=O)C(=O)CC(C)(C)C2
inhibition [1]: 97%
inhibition [2]: 80%
pIC50 [3]: 6.00
pIC50 [4]: 5.89

Structure (SMILES): CCc1cccc(CC)c1-n1c(C)c(C(=O)N2CCNCC2)cc(-c2nc(-c3ccc(Cl)cc3)cs2)c1=O
inhibition [1]: 103%
inhibition [2]: 93%
pIC50 [3]: 6.68
pIC50 [4]: 5.82

Structure (SMILES): CCc1cccc(CC)c1-n1c(C=C(C)C)c(C(=O)N2CCNC(C#N)C2)cc(-c2nc(-c3ccc(Cl)cc3)cs2)c1=O (centres undefined)
pIC50 [3]: 6.80
pIC50 [4]: 7.25

Structure (SMILES): CC1(C)CC(=O)c2cc(-c3nc(-c4ccc(Cl)cc4)cs3)c(=O)n(-c3ccccc3C(=O)O)c2C1
inhibition [1]: 96%
inhibition [2]: 105%
pIC50 [3]: 5.34
pIC50 [4]: 4.96

Structure (SMILES): CCc1cccc(CC)c1-n1c(C)c(C(=O)NCC(=O)O)cc(-c2nc(-c3ccc(Cl)cc3)cs2)c1=O
inhibition [1]: 106%
inhibition [2]: 87%
pIC50 [3]: 5.92
pIC50 [4]: 4.96

Structure (SMILES): COc1ccc(OC)c(-n2cccc(-c3nc(-c4ccc(Cl)cc4)cs3)c2=O)c1
pIC50 [3]: < 4.42
pIC50 [4]: < 4.42

Structure (SMILES): CCc1cccc(CC)c1-n1c(C)c(C(=O)OC)cc(-c2nc(-c3ccc(Cl)cc3)cs2)c1=O
pIC50 [3]: < 4.42
pIC50 [4]: < 4.42

Structure (SMILES): COc1ccc(OC)c(-n2c3c(cc(-c4cccc(-c5ccc(Cl)cc5)c4)c2=O)C(=O)CC(C)(C)C3)c1
pIC50 [3]: < 4.42
pIC50 [4]: < 4.42

Structure (SMILES): CCc1cccc(CC)c1-n1c(C(C)C)c(C(=O)N2CCNCC2)cc(-c2nc(-c3ccc(Cl)cc3)cs2)c1=O
inhibition [1]: 102%
inhibition [2]: 92%
pIC50 [3]: 6.38
pIC50 [4]: 6.41

Structure (SMILES): CCc1cccc(C)c1-n1c(C=C(C)C)c(C(=O)N2CCNCC2)cc(-c2nc(-c3ccc(Cl)cc3)cs2)c1=O
pIC50 [3]: 6.57
pIC50 [4]: 5.66

Structure (SMILES): CCc1cccc(CC)c1-n1c(C=C(C)C)c(C(=O)N2CCNC(C(F)(F)F)C2)cc(-c2nc(-c3ccc(Cl)cc3)cs2)c1=O (centres undefined)
pIC50 [3]: 6.44
pIC50 [4]: 6.89

Structure (SMILES): COc1ccc(OC)c(-n2c3c(cc(-c4nc5cc(Cl)ccc5s4)c2=O)C(=O)CC(C)(C)C3)c1
pIC50 [3]: < 4.42
pIC50 [4]: < 4.42

Next, values leading:

inhibition [1]: 108%
inhibition [2]: 86%
pIC50 [3]: 4.92
pIC50 [4]: 4.85
Structure (SMILES): COc1ccc(C(=O)O)cc1-n1c2c(cc(-c3nc(-c4ccc(Cl)cc4)cs3)c1=O)C(=O)CC(C)(C)C2

inhibition [1]: 102%
inhibition [2]: 92%
pIC50 [3]: 6.85
pIC50 [4]: 6.47
Structure (SMILES): CCc1cccc(CC)c1-n1c(CCOC)c(C(=O)N2CCNCC2)cc(-c2nc(-c3ccc(Cl)cc3)cs2)c1=O

inhibition [1]: 87%
inhibition [2]: 75%
pIC50 [3]: 5.62
pIC50 [4]: 5.80
Structure (SMILES): COc1cccc(OC)c1-n1c2c(cc(-c3nc(-c4ccc(Cl)cc4)cs3)c1=O)C(=O)CC(C)(C)C2

inhibition [1]: 102%
inhibition [2]: 108%
pIC50 [3]: 6.04
pIC50 [4]: 5.70
Structure (SMILES): COc1cccc(C(=O)O)c1-n1c2c(cc(-c3nc(-c4ccc(Cl)cc4)cs3)c1=O)C(=O)CC(C)(C)C2

inhibition [1]: 50%
inhibition [2]: 94%
pIC50 [4]: 5.60
Structure (SMILES): COc1ccc(OC)c(-n2c3c(cc(-c4nc5ccc(Cl)cc5s4)c2=O)C(=O)CC(C)(C)C3)c1

inhibition [1]: 41%
pIC50 [4]: < 4.42
Structure (SMILES): COc1ccc(OC)c(-n2c3c(cc(-c4cn(-c5ccc(Cl)cc5)cn4)c2=O)C(=O)CC(C)(C)C3)c1

inhibition [1]: 97%
inhibition [2]: 89%
pIC50 [3]: 6.42
pIC50 [4]: 5.70
Structure (SMILES): CCc1cccc(CC)c1-n1c(C)c(C(=O)NCCN)cc(-c2nc(-c3ccc(Cl)cc3)cs2)c1=O

inhibition [1]: 92%
inhibition [2]: 102%
pIC50 [3]: 5.68
pIC50 [4]: 6.14
Structure (SMILES): CCc1cccc(CC)c1-n1c(C)c(C(=O)NCCOC)cc(-c2nc(-c3ccc(Cl)cc3)cs2)c1=O

inhibition [1]: 91%
inhibition [2]: 83%
pIC50 [3]: 5.70
pIC50 [4]: 6.06
Structure (SMILES): CCc1ccccc1-n1c2c(cc(-c3nc(-c4ccc(Cl)cc4)cs3)c1=O)C(=O)CC(C)(C)C2

pIC50 [3]: 7.03
pIC50 [4]: 7.38
Structure (SMILES): CCc1cccc(CC)c1-n1c(C=C(C)C)c(C(=O)N2CCNC(C(N)=O)C2)cc(-c2nc(-c3ccc(Cl)cc3)cs2)c1=O (centres undefined)

inhibition [1]: 35%
pIC50 [4]: < 4.42
Structure (SMILES): COc1ccc(OC)c(-n2c3c(cc(C(=O)NCc4ccc(Cl)cc4)c2=O)C(=O)CC(C)(C)C3)c1

inhibition [1]: 89%
inhibition [2]: 82%
pIC50 [3]: 6.16
pIC50 [4]: 6.62
Structure (SMILES): CCc1cccc(CC)c1-n1c2c(cc(-c3nc(-c4ccc(Cl)cc4)cs3)c1=O)C(=O)CC(C)(C)C2

inhibition [1]: 98%
inhibition [2]: 86%
pIC50 [3]: 5.92
pIC50 [4]: 5.70
Structure (SMILES): CCc1cccc(CC)c1-n1c(C)c(C(=O)N(C)C)cc(-c2nc(-c3ccc(Cl)cc3)cs2)c1=O

pIC50 [3]: 7.00
pIC50 [4]: 7.14
Structure (SMILES): CCc1cccc(CC)c1-n1c(C=C(C)C)c(C(=O)N2CCNC(CC)C2)cc(-c2nc(-c3ccc(Cl)cc3)cs2)c1=O (centres undefined)

pIC50 [3]: 7.36
pIC50 [4]: 7.26
Structure (SMILES): CCc1cccc(Cl)c1-n1c(C=C(C)C)c(C(=O)N2CCNCC2)cc(-c2nc(-c3ccc(Cl)cc3)cs2)c1=O

pIC50 [3]: 6.62
pIC50 [4]: 7.19
Structure (SMILES): CCc1cccc(CC)c1-n1c(C=C(C)C)c(C(=O)N2CC3(CNC3)C2)cc(-c2nc(-c3ccc(Cl)cc3)cs2)c1=O

pIC50 [3]: < 4.42
pIC50 [4]: < 4.42
Structure (SMILES): CCOC(=O)c1cc(-c2nc(-c3ccc(Cl)cc3)cs2)c(=O)n(-c2c(CC)cccc2CC)c1-c1ccccc1

inhibition [1]: 88%
inhibition [2]: 81%
pIC50 [4]: 6.39
Structure (SMILES): CCOc1ccccc1-n1c2c(cc(-c3nc(-c4ccc(Cl)cc4)cs3)c1=O)C(=O)CC(C)(C)C2

inhibition [1]: 98%
inhibition [2]: 78%
pIC50 [3]: 6.24
pIC50 [4]: 6.55
Structure (SMILES): CC1(C)CC(=O)c2cc(-c3nc(-c4ccc(Cl)cc4)cs3)c(=O)n(-c3ccccc3OC(F)(F)F)c2C1

pIC50 [3]: 7.25
pIC50 [4]: 6.80
Structure (SMILES): CCc1ccccc1-n1c(C=C(C)C)c(C(=O)N2CCNCC2)cc(-c2nc(-c3ccc(Cl)cc3)cs2)c1=O

inhibition [1]: 31%
pIC50 [4]: < 4.42
Structure (SMILES): COc1ccc(OC)c(-n2c3c(cc(-n4cc(-c5ccccc5)cn4)c2=O)C(=O)CC(C)(C)C3)c1

pIC50 [3]: < 4.42
pIC50 [4]: < 4.42
Structure (SMILES): COc1ccc(OC)c(-n2c3c(cc(-c4ncc(-c5ccc(Cl)cc5)s4)c2=O)C(=O)CC(C)(C)C3)c1

pIC50 [3]: 6.89
pIC50 [4]: 7.09
Structure (SMILES): CCCC1CN(C(=O)c2cc(-c3nc(-c4ccc(Cl)cc4)cs3)c(=O)n(-c3c(CC)cccc3CC)c2C=C(C)C)CCN1 (centres undefined)
